Reference: US11034839B2, “Compounds, linked with haptens, for the detection of senescent cells” (THE UNIVERSITY OF MANCHESTER, priority 2016, dated 2021)
Entries after “also recorded” stand apart in the source; their conditions may differ.

Key:
[1] = test system: lipofuscin; test: Immunofluorescence staining / lipofuscin autofluorescence control; format: cell-based; conditions: fluorescence microscopy, FIG. 9
Method: In inventive example 6 the derivative LG13 was used to detect lipofuscin rich cells in cell spreads from cell culture by immunofluorescence staining.
Immunofluorescence staining protocol cellsor ounted on coverslips • 1. Wash ×1 in TBS for 5 min at RT. • 2. Wash ×1 in EtOH 50% for 5 min at RT. • 3. Wash ×1 EtOH 70% for 5 min at RT. • 4. Incubate with the compound (LG13) at RT. A drop of freshly prepared compound (LG13) is placed on a clean slide with the use of a syringe that carrying a 2 mm filter (see also FIG. 1 from Evangelou & Gorgoulis, 2016). Then the cover-slip with the cells is turned down (using thin edged forceps) on the slide and attached on the dye drop in a way that the material faces down the drop on the slide (All incubations were performed in chambers (cover slips) and coplin jars (glass slides) to avoid exsiccation of the material), (see also FIG. 1 from Evangelou & Gorgoulis, 2016). • 5. The staining reaction is monitored under the light microscope until detection of the signal (average time 5-8 min). • 6. Wash ×2 in EtOH 50%. • 7. Repeat washing ×2 in fresh EtOH 50%. • 8. Wash ×2 in TBS for 30 sec and ×1 for 5 min at RT. • 9. Incubate with 0.5% Triton X/TBS for 3 min at RT. • 10. Wash ×1 in TBS for 5 min at RT. • 11. […] Observe under the fluorescence microscope

[2] = test system: senescent cells in biological systems with established senescence; test: Quantitative analysis and concordance of SA-b-gal, SBB and GL13 staining; conditions: FIG. 15
[3] = test system: human diploid lung fibroblasts (DLFs) and human bronchial epithelial cells (HBEC-Cdc6 Tet-ON); test: IHC staining versus proliferation markers (Ki67 and BrdU incorporation); format: cell-based; conditions: FIG. 16

`CC1(COC(=O)CCCC[C@H]2SC[C@H]3NC(=O)N[C@H]32)Nc2cccc3c(/N=N/c4ccc(/N=N/c5ccccc5)c5ccccc45)ccc(c23)N1` (stereo partly drawn) [LG13, (2-methyl-6-((E)-(4-((E)-phenyldiazenyl)naphthalen-1-yl)diazenyl)-2,3-dihydro-1H-perimidin-2-yl)methyl 5-((3aR,4R,6aS)-2-oxohexahydro-1H-thieno[3,4-d]imidazol-4-yl)pentanoate] was tested, and the “effect of staining on lipofuscin autofluorescence” value [1] was “quenched; also recorded: “masks” the autofluorescence ability of lipofuscin”, the “specificity compared among SA-b-gal, SBB and GL13 staining” value [2] was “concordance of specificity” and the “relationship between IHC staining and proliferation markers (Ki67 and BrdU incorporation)” value [3] was “Inverse relationship”.
